Data published in patent publication US20220226480A1, “LIPID CONJUGATE PREPARED FROM SCAFFOLD MOIETY” (Integrated Nanotherapeutics Inc., priority 2019, published 2022).

How the values were obtained:
[1] = Encapsulation efficiency / incorporation of pro-drug in LNP; assay type: physicochemical; conditions: for Encapsulation Efficiency (%): LNP containing 10 mol % conjugate; for % Entrapment: LNP formulations containing pro-drugs (10 mol %, FIG. 6A)
Protocol: (§1) LNPs were prepared by dissolving 1,2-Distearoyl-sn-glycero-3-phosphocholine (DSPC) or 1,2-dimyristoyl-sn-glycero-3-phosphocholine (DMPC), cholesterol and 1,2-Distearoyl-sn-glycero-3-phosphoethanolamine-Poly(ethylene glycol) (PEG-DSPE) in ethanol. DSPC, DMPC and PEG-DSPE were purchased from Avanti Polar Lipids (Alabaster, Ala.), and cholesterol was obtained from Sigma (St Louis, Mo.).
(§2) Drug-lipid-conjugates INT-D034, INT-D035, INT-D045, INT-D046, INT-D047, INT-D048, INT-D049, INT-D050, INT-D051, INT-D053, INT-D060, INT-D061, INT-D062, INT-D063, INT-D083, INT-D085, INT-D086, INT-D088 and INT-D089 (see FIG. 3 and Example 7 for structures) were dissolved in isopropanol or THF. LNP were prepared by rapidly mixing DSPC or DMPC, cholesterol, drug-lipid conjugate, and PEG-DSPE (in molar ratio of 49/40/10/1) with phosphate-buffered saline (PBS) using a cross-junction mixer. Formulations were dialyzed against PBS to remove residual ethanol. In formulation$ with more than 10 mol % drug-lipid conjugates, the amount of phospholipid or cholesterol was reduced accordingly.
(§3) The physiochemical properties of the LNPs prepared as described above were subsequently characterized. Particle size was determined by dynamic light scattering using a Malvern Zetasizer Nano ZS (Malvern, UK) following buffer exchange into phosphate-buffered saline. Number-weighted size and distribution date was used. Lipid concentrations were determined by measuring total cholesterol using the Cholesterol E enzymatic assay kit from Wako Chemicals USA (Richmond, Va.). The morphology of LNP formulations containing LD-DEX was analyzed by cryogenic-transmission electron microscopy (cryoTEM).

[2] = Particle size and polydispersity of LNP containing pro-drug (dynamic light scattering); assay type: physicochemical; set-up: Size of LNP: unit not given here; conditions: for Particle Diameter (nm) / Polydispersity index (PDI): LNP containing 10 mol % conjugate, primary PC-lipid DMPC
Protocol: as §1, §2, §3

[3] = LNP formulations containing pro-drugs (10 mol %, FIG. 6A)
[4] = LNP, pro-drug concentration 50 %
[5] = LNP, pro-drug concentration 60 %
[6] = LNP, pro-drug concentration 80 %
[7] = LNP, pro-drug concentration 98 %
[8] = LNP, pro-drug concentration 99 %
[9] = LNP, pro-drug concentration 10 %
[10] = LNP, pro-drug concentration 20 %

| PdI [2, 9] | Size (nm) [2, 9] | PdI [2, 10] | Size (nm) [2, 10] | Structure (SMILES) | Encapsulation Efficiency (%) ([1]; primary PC-lipid DMPC) | % Entrapment [1] | Particle Diameter (nm) [2] | Polydispersity index (PDI) [2] | PdI [2, 3] | Size of LNP [2, 3] | PdI [2, 5] | Size (nm) [2, 5] | PdI [2, 6] | Size (nm) [2, 6] | PdI [2, 7] | Size (nm) [2, 7] | PdI [2, 8] | Size (nm) [2, 8] | further results |
| --- | --- | --- | --- | --- | --- | --- | --- | --- | --- | --- | --- | --- | --- | --- | --- | --- | --- | --- | --- |
|  |  |  |  | CCCCCCCCCCCC(=O)O[C@@H](C/C=C\CCCCCCCCOC(=O)CCC(=O)OCC(=O)[C@@]1(O)[C@H](C)C[C@H]2[C@@H]3CCC4=CC(=O)C=C[C@]4(C)[C@@]3(F)[C@@H](O)C[C@@]21C)CCCCCC [INT-D046, (R,Z)-12-(dodecanoyloxy)octadec-9-en-1-yl (2-((8S,9R,10S,11S,13S,14S,16R,17R)-9-fluoro-11,17-dihydroxy-10,13,16-trimethyl-3-oxo-6,7,8,9,10,11,12,13,14,15,16,17-dodecahydro-3H-cyclopenta[a]phenanthren-17-yl)-2-oxoethyl) succinate] | 93% | 100% | 69 nm | 0.04 | 0.08 | 64 |  |  |  |  |  |  |  |  |  |
|  |  |  |  | CC/C=C\C/C=C\C/C=C\CCCCCCCC(=O)O[C@@H](C/C=C\CCCCCCCCOC(=O)CCC(=O)OCC(=O)[C@@]1(O)[C@H](C)C[C@H]2[C@@H]3CCC4=CC(=O)C=C[C@]4(C)[C@@]3(F)[C@@H](O)C[C@@]21C)CCCCCC [INT-D049, 2-((8S,9R,10S,11S,13S,14S,16R,17R)-9-fluoro-11,17-dihydroxy-10,13,16-trimethyl-3-oxo-6,7,8,9,10,11,12,13,14,15,16,17-dodecahydro-3H-cyclopenta[a]phenanthren-17-yl)-2-oxoethyl ((R,Z)-12-(linolenoyloxy)octadec-9-en-1-yl) succinate] | 94% | 100% | 68 nm | 0.05 | 0.11 | 65 | 0.02 | 61 nm | 0.03 | 92 nm | 0.05 | 69 nm | 0.03 | 103 nm | Encapsulation Efficiency (%) ([1]; primary PC-lipid DSPC): 100%; PdI [2, 4]: 0.05; Size (nm) [2, 4]: 44 nm |
|  |  |  |  | CCCCCCCCCCCCCCCCCC(=O)O[C@@H](C/C=C\CCCCCCCCOC(=O)CCC(=O)OCC(=O)[C@@]1(O)[C@H](C)C[C@H]2[C@@H]3CCC4=CC(=O)C=C[C@]4(C)[C@@]3(F)[C@@H](O)C[C@@]21C)CCCCCC [INT-D050, 2-((8S,9R,10S,11S,13S,14S,16R,17R)-9-fluoro-11,17-dihydroxy-10,13,16-trimethyl-3-oxo-6,7,8,9,10,11,12,13,14,15,16,17-dodecahydro-3H-cyclopenta[a]phenanthren-17-yl)-2-oxoethyl ((R,Z)-12-(stearoyloxy)octadec-9-en-1-yl) succinate] | 97% | 90% | 61 nm | 0.04 | 0.05 | 60 |  |  | 0.01 | 101 nm | 0.02 | 61 nm | 0.01 | 105 nm |  |
|  |  |  |  | CCCCC/C=C\C/C=C\C/C=C\C/C=C\CCCC(=O)O[C@@H](C/C=C\CCCCCCCCOC(=O)CCC(=O)OCC(=O)[C@@]1(O)[C@H](C)C[C@H]2[C@@H]3CCC4=CC(=O)C=C[C@]4(C)[C@@]3(F)[C@@H](O)C[C@@]21C)CCCCCC [INT-D051, 2-((8S,9R,10S,11S,13S,14S,16R,17R)-9-fluoro-11,17-dihydroxy-10,13,16-trimethyl-3-oxo-6,7,8,9,10,11,12,13,14,15,16,17-dodecahydro-3H-cyclopenta[a]phenanthren-17-yl)-2-oxoethyl ((R,Z)-12-(arachidonoyloxy)octadec-9-en-1-yl) succinate] | 84% | 100% | 65 nm | 0.03 | 0.04 | 61 |  |  | 0.02 | 87 nm | 0.04 | 56 nm | 0.01 | 93 nm | Encapsulation Efficiency (%) ([1]; primary PC-lipid DSPC): 100% |
| 0.061 | 44 nm | 0.065 | 39 nm | CCCCC/C=C\C/C=C\CCCCCCCC(=O)O[C@@H](C/C=C\CCCCCCCCOC(=O)c1ccccc1OC(C)=O)CCCCCC [INT-D061] |  |  |  |  |  |  | 0.186 | 72 nm | 0.089 | 82 nm |  |  | 0.045 | 123 nm |  |
| 0.085 | 42 nm | 0.072 | 39 nm | CCCCCC[C@H](C/C=C\CCCCCCCCOC(=O)CC/C(C)=C/Cc1c(O)c2c(c(C)c1OC)COC2=O)OC(=O)CCCCC [INT-D062, (12R)-Hexanoyloxyoleyl (E) 6-(4-hydroxy-6-methoxy-7-methyl-3-oxo-1,3-dihydroisobenzofuran-5-yl)-4-methylhex-4-enoate] |  |  |  |  |  |  | 0.212 | 70 nm | 0.021 | 68 nm |  |  | 0.019 | 93 nm |  |
| 0.069 | 41 nm | 0.056 | 41 nm | CCCCC/C=C\C/C=C\CCCCCCCC(=O)O[C@@H](C/C=C\CCCCCCCCOC(=O)CC/C(C)=C/Cc1c(O)c2c(c(C)c1OC)COC2=O)CCCCCC [INT-D063, (12R)-Linoleoyloxyoleyl (E)-6-(4-hydroxy-6-methoxy-7-methyl-3-oxo-1,3-dihydroisobenzofuran-5-yl)-4-methylhex-4-enoate] |  |  |  |  |  |  | 0.149 | 57 nm | 0.031 | 91 nm |  |  | 0.028 | 119 nm |  |

| Structure (SMILES) | PdI [2, 9] | Size (nm) [2, 9] | PdI [2, 10] | Size (nm) [2, 10] | Encapsulation Efficiency (%) ([1]; primary PC-lipid DMPC) | % Entrapment [1] | Particle Diameter (nm) [2] | Polydispersity index (PDI) [2] | PdI [2, 3] | Size of LNP [2, 3] | PdI [2, 5] | Size (nm) [2, 5] | PdI [2, 6] | Size (nm) [2, 6] | PdI [2, 7] | Size (nm) [2, 7] | PdI [2, 8] | Size (nm) [2, 8] | further results |
| --- | --- | --- | --- | --- | --- | --- | --- | --- | --- | --- | --- | --- | --- | --- | --- | --- | --- | --- | --- |
| CCCCCC[C@H](C/C=C\CCCCCCCCOC(=O)c1ccccc1OC(C)=O)OC(=O)CCCCC [INT-D060, (R,Z)-12-Hexanoyloxyoctadec-9-en-1-yl 2-acetoxybenzoate] | 0.06 | 46 nm | 0.116 | 42 nm |  |  |  |  |  |  | 0.216 | 71 nm | 0.042 | 67 nm |  |  | 0.034 | 98 nm |  |
| CCCCCCCCC(OC(=O)CCCCC)C(CCCCCCCC(=O)OCC(=O)[C@@]1(O)[C@H](C)C[C@H]2[C@@H]3CCC4=CC(=O)C=C[C@]4(C)[C@@]3(F)[C@@H](O)C[C@@]21C)OC(=O)CCCCC (stereo partly drawn) [INT-D085, 1-(2-((8S,9R,10S,11S,13,14S,16R,17R)-9-Fluoro-11,17-dihydroxy-10,13,16-trimethyl-3-oxo-6,7,8,9,10,11,12,13,14,15,16,17-dodecahydro-3H-cyclopenta[a]phenanthren-17-yl)-2-oxoethoxy)-1-oxooctadecane-9,10-diyl dihexanoate] | 0.064 | 42 nm | 0.075 | 39 nm |  | 100% |  |  | 0.06 | 42 | 0.059 | 56 nm | 0.034 | 124 nm |  |  | 0.006 | 135 nm |  |
